# Like-named read-outs stand apart in the source and are kept apart here. Where no end group is shown, it is not given here.
# Legend:
# PTHR-delNt = target: T1, PTHR-delNt (Homo sapiens, UniProt Q03431, DEL24-181); assay: Competition binding in COS-7 cell membranes with 125I-[Aib1,3,M]PTH(1-15)NH2 tracer; settings: for IC50: COS-7 membranes cotransfected with negative-dominant Gαs
# T1 construct: expressed in transfected cells; host or cells: COS-7 cells, transient co-transfection; membranes prepared
# T1 sequence (Q03431 with tags, fused parts or gaps DEL24-181): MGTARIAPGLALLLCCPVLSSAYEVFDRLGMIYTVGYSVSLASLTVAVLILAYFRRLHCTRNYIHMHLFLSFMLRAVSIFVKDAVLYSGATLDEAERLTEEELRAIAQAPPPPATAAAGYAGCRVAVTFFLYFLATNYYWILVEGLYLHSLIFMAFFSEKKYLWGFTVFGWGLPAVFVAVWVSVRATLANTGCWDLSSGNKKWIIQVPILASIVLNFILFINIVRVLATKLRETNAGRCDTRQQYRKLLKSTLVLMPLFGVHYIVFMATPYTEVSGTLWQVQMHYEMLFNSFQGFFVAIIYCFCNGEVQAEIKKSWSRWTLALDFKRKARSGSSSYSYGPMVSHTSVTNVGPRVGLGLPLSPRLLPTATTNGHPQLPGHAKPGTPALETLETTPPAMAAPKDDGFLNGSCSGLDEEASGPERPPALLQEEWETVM
# In short: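 Membranes (20 µg/well) from COS-7 cells co-transfected with human PTHR lacking residues 24–181 plus dominant-negative Gαs, incubated 90 min at 21 °C with 125I-[Aib1,3,M]PTH(1-15)NH2 and unlabeled peptide (3×10^−9 to 1×10^−5 M), then filtered and gamma-counted. Non-specific binding with 1×10^−6 M [Aib1,3,M]PTH(1-15)NH2; IC50 by four-parameter logistic fit, extrapolated to reference maximal inhibition where incomplete.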
# [1] = Circular dichroism spectroscopy, helical residues per peptide chain; format: physicochemical; settings: calculated from [θ]222
# In short: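 CD spectra recorded at 20 °C, four scans averaged; peptide concentration checked by A280 with the single-Trp extinction coefficient of 5700 M^−1. Helical residues per chain calculated as −[θ]222×30/28,000 from mean residue ellipticity at 222 nm.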
# [2] = hPTH(1-31)NH2 analogs, read-out: PTHR-delNT (COS-7) IC50
Substance,"reduction (alteration) of binding affinity for PTHR-delNt relative to parent peptide (PTHR-delNt; COS-7 membranes, versus the respective parent peptide)","IC50 (PTHR-delNt; PTHR-delNT (COS-7) IC50, [Ala1,Arg19]hPTH(1-31)NH2 analogs) [nM]","CD helical residues ([1]; [Ala1,Arg19]hPTH(1-31)NH2 analogs)",IC50 (PTHR-delNt; [2]) [nM],CD helical residues ([1]; hPTH(1-31)NH2 analogs)
AVSEIQLMHNLGKHLNSMRREEWLRKKLQDV-NH2 [Val^21→Glu],about four-fold,1620,7,–,–
SVSEIQLMHNLGKHLNSMERAEWLRKKLQDV-NH2 [Val^21→Ala],–,–,–,5690,10
SVSEIQLMHNLGKHLNSMARVEWLRKKLQDV-NH2 [Glu^19→Ala],–,–,–,2940,9
